The text below walks through data of patent US8143373B2, “Carbohydrate-containing pan cancer marker” (Vancouver Biotech Ltd., priority 2007, dated 2012).

“And” between values parts separate entries of the source, which are not always exact repeats. Identical values can stand only once.

Data set [1] concerns OC-3-VGH ovarian cancer cells tumors. Briefly: Tumor growth in nude mice implanted subcutaneously with cancer cells. Format: in vivo. The settings on record: for Percent (average tumor weight, negative control = 100) / Average of Tumor Weight: n=4; for Body Weight (individual mouse) / Tumor Weight (individual mouse): mice #1-4. The procedure:
Groups of four nude mice were implanted subcutaneously with 2×10^6 cells in 0.2 ml per mouse at sites near the breast for a growth period of 2-3 weeks. Treatments were performed after visible apparent growth of tumors. The radioactive labeling of the mAb was at a specific radioactivity of 12.5 μCi/mg.
The mice were sacrificed on day 16 after treating with antibody, and the size of tumors in each mouse was determined by weight together with the body weight.

Data set [2] relates to CA215 antigen on OC-3-VGH cancer cells. The experiment in a line: Direct binding enzyme immunoassay of RP215-HRP to OC-3-VGH cancer cell-coated wells (NaIO4 treatment, goat anti-human IgG competition). The settings on record: for Optical Density at 450 nm / percent maximum binding: RP215-HRP 10 ug/ml + normal mouse IgG 10 ug/ml. On the procedure: PBS-washed OC-3-VGH cancer cells (conc. 1×10^6 cells/ml) were incubated with 100 mM NaIO4 for 30 minutes, the cells were washed with PBS containing 0.5% BSA, and then dried on microwells at 1×10^4 cells/well. The cell-coated microwells were then blocked with 0.5% BSA in PBS and direct binding enzyme immunoassays using RP215 labeled with horseradish peroxidase (RP215-HRP) were performed at 37° C. for one hour followed by extensive washes and color development with TMB substrate. For comparison wells coated with cancer cells without NaIO4 treatments served as control.

Data set [3] concerns CA215 present in OC-3-VGH cancer cells. Briefly: Secondary two-step ELISA, direct binding of anti-immunoglobulin antibodies to CA215 in OC-3-VGH cancer cells. Further details: species or system human. The settings on record: 1.125 ug/ml primary antibody; ODn = corresponding normal mouse IgG concentration. On the procedure: In this case the experiment was conducted as a secondary two-step ELISA with primary antibodies incubated with sample overnight at room temperature, followed by goat antibody Anti-Mouse IgG-ALP, for 1 hour at 37° C. ODs is the OD value of sample and ODn is the OD value of corresponding normal mouse IgG concentration.

Data set [4] has as its system OC-3-VGH ovarian cancer cells. The experiment in a line: Growth of OC-3-VGH cell cultures in vitro. Format: cell-based, human. To be noted: addition to cell cultures of OC-3-VGH ovarian cancer cells. On the procedure: Cell culture growth was also not inhibited either by human IgG or goat anti-human IgG in vitro up to a concentration of 200 μg/ml in the cell culture.

Data set [5] concerns CA215. The experiment in a line: Sandwich EIA with coated RP215 forms, OC-3-VGH shed medium and HRP-labeled RP215. Format: binding, human. To be noted: for Relative Signal Intensity in Sandwich EIA: antibody coated at 5 μg/ml, 450 nm. The procedure:
Each was coated separately at 5 μg/ml overnight in microwells. The microwells were treated with concentrated cell culture shed medium of OC-3-VGH cells (to supply CA215) and then with HRP-labeled RP215 as a detection antibody. The detection antibody was incubated with each well for 60 min. at 37° C. After 30 min, TMB substrate was added for 20 min. of color development and, after stopping the reaction, the intensity determined at 450 nm in an ELISA reader. In some cases, 10 μg/ml human IgG was added to the wells, but this had no evident effect on the signal intensity.

Data set [6] has as its system Goat Anti-mouse IgG. The experiment in a line: Binding of well-coated antibodies to detecting antibody. The settings on record: for Relative Intensity: detecting antibody Goat Anti-mouse IgG, RP215 adjusted to 100%. The text has this:
In row 1, the results were normalized to 100% for the interaction between RP215 and goat anti-mouse IgG. As shown in the first row, goat anti-mouse IgG bound comparatively poorly to the humanized or chimeric human forms.

Data set [7] deals with Goat Anti-human IgG. Described as above. The settings on record: for Relative Intensity: detecting antibody Goat Anti-human IgG, hRP215 adjusted to 100%. From the text: In row 2, when goat anti-human IgG is used as a detector, and humanized RP215 was set at 100%, decreased binding was shown for human IgG, and very reduced binding for the chimeric or murine RP215.
Data set [8] relates to Goat Anti-human IgFc. The data set is described as above.
The test system of data set [9] is Goat Anti-human IgFab. Described as above.
Setting [10] is: 60 mg/Kg, sacrificed day 16 after treating.
Where [11] appears, read: high dose 10 mg/Kg (I131-labeled: + 125 μCi), day 16, 10 mg/kg, in g (unit assumed).
[12] abbreviates: low dose 2 mg/Kg (I131-labeled: + 25 μCi), day 16, 2 mg/kg, in g (unit assumed).

As for `O=P1(N(CCCl)CCCl)NCCCO1` (centres unmarked) [Cyclophosphonamide, reference compound], the “Percent (average tumor weight, negative control = 100)” value in data set [1] (60 mg/Kg, day 16) is listed as 73.2%. Besides, the “Average of Tumor Weight” value in data set [1] (60 mg/Kg, day 16, in g (unit assumed)) is reported as 0.09575. For the same compound, in [1] (setting [10]), the “Body Weight (individual mouse)” value is 21.18 (2×) and 21.42 and 23.37; the “Tumor Weight (individual mouse)” value is 0.098 (2×) and 0.096 and 0.091.

As for “RP215-HRP: RP215 labeled with horseradish peroxidase”, the “binding between RP215-HRP and cancer cell-coated wells treated with periodate (in words)” value in data set [2] (100 mM NaIO4 for 30 minutes vs untreated cells) was “drastically reduced”. Also, in data set [2] (with NaIO4 treatment), the “Optical Density at 450 nm” value came out at 0.797 and the percent maximum binding amounted to 37%. Also, in data set [2] (without NaIO4 treatment), the “Optical Density at 450 nm” value was 2.153 and the percent maximum binding is listed as 100%.

In the case of “RP215: monoclonal antibody (mouse IgG) to tumor-associated antigen CA215; hybridoma deposited as ATCC HB10095”, in data set [3], the ODs405/ODn405 was determined as 11.6. Moreover, in data set [4], the “effect on growth of cell cultures (in words)” value was “no effect on growth”. Also, the “Body Weight (individual mouse)” value in [1] (setting [11]) was 21.43 and 23.05 and 22.15 and 23.56; in data set [1] (setting [12]), 21.76 and 20.57 and 21.98 and 22.64. For the same compound, the “Tumor Weight (individual mouse)” value in data set [1] (setting [11]) was 0.088 and 0.077 and 0.095 and 0.086; in [1] (setting [12]) it was 0.103 and 0.122 and 0.080 and 0.104. Moreover, the “Percent (average tumor weight, negative control = 100)” value was 66.2% in data set [1] (high dose 10 mg/Kg (I131-labeled: + 125 μCi), day 16) and 78.2% in [1] (low dose 2 mg/Kg (I131-labeled: + 25 μCi), day 16). Further, the “Average of Tumor Weight” value in data set [1] (high dose 10 mg/Kg (I131-labeled: + 125 μCi), day 16, in g (unit assumed)) worked out at 0.0865; in data set [1] (low dose 2 mg/Kg (I131-labeled: + 25 μCi), day 16, in g (unit assumed)) it was 0.1022. For the same compound, the “tumor growth in vivo (in words)” value in data set [1] (nude mice) is recorded as “successful in inhibiting tumor growth in vivo”. Also, the “Relative Signal Intensity in Sandwich EIA” value in data set [5] (10 μg/ml Human IgG) and in data set [5] (No Human IgG) was 100% in each case. The “binding to goat anti-mouse IgG (in words)” value in data set [6] (antibody-coated microwells) is “strong binding”. Further, the “Relative Intensity” value is listed as 100% in [6], under 0.5% in data set [7], under 0.5% in data set [8] and under 1% in [9]. In [7] (antibody-coated microwells, alkaline phosphatase-labeled goat anti-human IgG), the “binding to goat anti-human IgG (in words)” value was “no binding”.

As to “chRP215: chimeric RP215 mAb with human constant regions and the murine variable regions of RP215”, the “Relative Signal Intensity in Sandwich EIA” value in data set [5] (10 μg/ml Human IgG) is recorded as 15.4%; in data set [5] (No Human IgG), 14.5%. For the same compound, the “binding affinity to CA215 compared with RP215 (in words)” value in [5] (sandwich EIA) is on record as “lower binding affinity”. Further, the “Relative Intensity” value was about 7% in [6], about 10% in data set [7], 45% in data set [8] and 10% in data set [9].
